What is called LC50 is the concentration that kills 50% of the test population. Low values mean a more lethal substance, high ones a less lethal substance.

Each structure is given as a SMILES string. Values after ≈ are worked out from the molar mass of the structure shown. A value given as a limit tells only on which side of the number the result lay.

For two molecules, EC50 and LC50 results are on record in ChEMBL document CHEMBL1133977, “Robinlin: a novel bioactive homo-monoterpene from Robinia pseudoacacia L. (Fabaceae)” (Bioorg Med Chem Lett, 2001).

In one data set the test system is PC-3. Briefly: In vitro cytotoxic activity against PC-3 (human prostate adenocarcinoma) cell line. The data set is classed as functional. The settings on record: read-out: ED50 (the source's name).
The subject of another data set is MIA PaCa-2. Description: In vitro cytotoxic activity against PACA-2 (human pancreatic carcinoma) cell line. It counts as functional. The settings on record: read-out: ED50 (the source's name).
A further data set relates to A549. Briefly: In vitro cytotoxic activity against A-549 (human lung carcinoma) cell line. The data set is classed as functional. The settings on record: read-out: ED50 (the source's name).
Data set [1] can be described thus: Activity in brine shrimp lethality test (BST). The data set is classed as organism-based. The settings on record: artemia, in vivo.
The next data set concerns HT-29. Briefly: In vitro cytotoxic activity against HT-29 (human colon adenocarcinoma) cell line. It counts as functional. The settings on record: read-out: ED50 (the source's name).
For another data set, the system named is MCF7. Description: In vitro cytotoxic activity against MCF-7 (human breast carcinoma) cell line. It counts as functional. The settings on record: read-out: ED50 (the source's name).
The next data set concerns A498. Briefly: In vitro cytotoxic activity against A-498 (human kidney carcinoma) cell line. It counts as functional. The conditions noted are these: read-out: ED50 (the source's name).

On to `CC1=C(CCO)C(C)(C)C[C@@H](O)C1=O`, for which the EC50 is > 100000 ng/mL in the data set with PC-3; > 100000 ng/mL with MIA PaCa-2; 47000 ng/mL (≈ 237 µM) in the data set with A549; 52000 ng/mL (≈ 262 µM) in the data set on HT-29; 46000 ng/mL (≈ 232 µM) in the data set on MCF7; > 100000 ng/mL in the data set on A498. This molecule also displayed an LC50 in data set [1] of 4900 ng/mL (≈ 24.7 µM).
Regarding `COc1cccc2c1C(=O)c1c(O)c3c(c(O)c1C2=O)C[C@@](O)(C(=O)CO)C[C@@H]3O[C@H]1C[C@H](N)[C@H](O)[C@H](C)O1` [DOXORUBICIN], the EC50 was 0.24 ng/mL (≈ 0.000442 µM) in the data set on PC-3; 0.18 ng/mL (≈ 0.000331 µM) with MIA PaCa-2; 0.21 ng/mL (≈ 0.000386 µM) in the data set with A549; 1.3 ng/mL (≈ 0.00239 µM) in the data set on HT-29; 5.8 ng/mL (≈ 0.0107 µM) in the data set on MCF7; 0.46 ng/mL (≈ 0.000846 µM) in the data set with A498.
